Test results: PubChem BioAssay AID256 (DTP/NCI, 2004)
Inconclusive results and toxic doses are left out.

Test system: CD2F1 mice, L1210 leukemia ip, survival T/C
Assay: NCI In Vivo Anticancer Drug Screen. Data for tumor model L1210 Leukemia (intraperitoneal) in CD2F1 (CDF1) mice
Conditions: endpoint: mean survival time, higher = longer survival
In short: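 Transplantable tumor in mice; compound-treated vs vehicle-treated groups. Read-out = treated/control ratio of the measured endpoint.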

[1] = dose: 50.0 mg/kg/injection, schedule: Q01DX009 (ip), vehicle: Klucel (hydroxypropylcellulose) (HPC)
[2] = dose: 100.0 mg/kg/injection, schedule: Q01DX009 (ip), vehicle: saline
[3] = dose: 200.0 mg/kg/injection, schedule: Q01DX009 (ip), vehicle: saline
[4] = dose: 100.0 mg/kg/injection, schedule: Q01DX009 (ip), vehicle: saline with Tween-80
[5] = dose: 100.0 mg/kg/injection, schedule: Q04DX003 (ip), vehicle: saline with Tween-80
[6] = dose: 200.0 mg/kg/injection, schedule: Q01DX009 (ip), vehicle: saline with Tween-80
[7] = dose: 200.0 mg/kg/injection, schedule: Q04DX003 (ip), vehicle: saline with Tween-80
[8] = dose: 400.0 mg/kg/injection, schedule: Q04DX003 (ip), vehicle: saline with Tween-80

In the case of `CC1C=NNC1=O` (centres undefined), the T/C (dose: 8.0 mg/kg/injection, schedule: Q03HX016 (ip), vehicle: saline) is reported as 101 % of control, the T/C (dose: 8.0 mg/kg/injection, schedule: Q03HX024 (ip), vehicle: saline) is reported as 96 % of control and the T/C (dose: 12.5 mg/kg/injection, schedule: Q01DX009 (ip), vehicle: Klucel (hydroxypropylcellulose) (HPC)) is reported as 97 % of control. For the same molecule, the T/C (dose: 16.0 mg/kg/injection, schedule: Q03HX016 (ip), vehicle: saline) was 98 % of control, the T/C (dose: 16.0 mg/kg/injection, schedule: Q03HX024 (ip), vehicle: saline) was 100 % of control and the T/C (dose: 25.0 mg/kg/injection, schedule: Q01DX009 (ip), vehicle: Klucel (hydroxypropylcellulose) (HPC)) was 110 % of control. The T/C (dose: 32.0 mg/kg/injection, schedule: Q03HX016 (ip), vehicle: saline) was 112 % of control, the T/C (dose: 32.0 mg/kg/injection, schedule: Q03HX024 (ip), vehicle: saline) was 116 % of control and the T/C [1] was 111 % of control. For the same molecule, the T/C (dose: 64.0 mg/kg/injection, schedule: Q01DX009 (ip), vehicle: saline) was 109 % of control, the T/C (dose: 64.0 mg/kg/injection, schedule: Q03HX016 (ip), vehicle: saline) was 110 % of control and the T/C (dose: 64.0 mg/kg/injection, schedule: Q03HX024 (ip), vehicle: saline) was 108 % of control. The T/C (dose: 64.0 mg/kg/injection, schedule: Q04DX003 (ip), vehicle: saline) was 103 % of control, the T/C (dose: 64.0 mg/kg/injection, schedule: Q08DX002 (ip), vehicle: saline) was 102 % of control and the T/C [2] was 117 % of control. For the same molecule, the T/C (dose: 128.0 mg/kg/injection, schedule: Q01DX009 (ip), vehicle: saline) was 118 % of control, the T/C (dose: 128.0 mg/kg/injection, schedule: Q04DX003 (ip), vehicle: saline) was 103 % of control and the T/C (dose: 128.0 mg/kg/injection, schedule: Q08DX002 (ip), vehicle: saline) was 101 % of control. The T/C [3] was 123 % of control, the T/C (dose: 256.0 mg/kg/injection, schedule: Q04DX003 (ip), vehicle: saline) was 110 % of control and the T/C (dose: 256.0 mg/kg/injection, schedule: Q08DX002 (ip), vehicle: saline) was 102 % of control. For the same molecule, the T/C (dose: 400.0 mg/kg/injection, schedule: Q01DX009 (ip), vehicle: Klucel (hydroxypropylcellulose) (HPC)) was 155 % of control, the T/C (dose: 512.0 mg/kg/injection, schedule: Q04DX003 (ip), vehicle: saline) was 103 % of control and the T/C (dose: 512.0 mg/kg/injection, schedule: Q08DX002 (ip), vehicle: saline) was 106 % of control.

For `O=[N+]([O-])c1cccc(-c2nn[nH]n2)c1`, the T/C (dose: 100.0 mg/kg/injection, schedule: Q01DX001 (ip), vehicle: saline with Tween-80) was 93 % of control, the T/C [4] was 98 % of control and the T/C [5] was 97 % of control. For the same molecule, the T/C (dose: 200.0 mg/kg/injection, schedule: Q01DX001 (ip), vehicle: saline with Tween-80) was 104 % of control, the T/C [6] was 117 % of control and the T/C [7] was 97 % of control. The T/C (dose: 400.0 mg/kg/injection, schedule: Q01DX001 (ip), vehicle: saline with Tween-80) was 88 % of control, the T/C (dose: 400.0 mg/kg/injection, schedule: Q01DX009 (ip), vehicle: saline with Tween-80) was 101 % of control and the T/C [8] was 103 % of control.

`c1ccc(CCc2ccnc3ccccc23)cc1` was tested, and the T/C (dose: 50.0 mg/kg/injection, schedule: Q01DX009 (ip), vehicle: saline with Tween-80) was 94 % of control, the T/C [4] was 98 % of control and the T/C [6] was 100 % of control.

With `NC(=O)CSCC(N)=O` the T/C [5] was 94 % of control, the T/C [7] was 96 % of control and the T/C [8] was 90 % of control.

For `Cc1ccc(S(=O)(=O)Nc2ccccc2-c2nc3cc(Cl)ccc3c(=O)o2)cc1`, the T/C [5] was 87 % of control, the T/C [7] was 98 % of control and the T/C [8] was 98 % of control.

With `O=C1C(Cl)=C(Nc2nc3ccccc3s2)C(=O)c2ccccc21` the T/C (dose: 25.0 mg/kg/injection, schedule: Q01DX001 (ip), vehicle: Klucel (hydroxypropylcellulose) (HPC)) was 102 % of control, the T/C (dose: 50.0 mg/kg/injection, schedule: Q01DX001 (ip), vehicle: Klucel (hydroxypropylcellulose) (HPC)) was 96 % of control and the T/C (dose: 100.0 mg/kg/injection, schedule: Q01DX001 (ip), vehicle: Klucel (hydroxypropylcellulose) (HPC)) was 98 % of control.

With `C=C1C2CCC3C2C(C)(C)CCCC13C` (centres undefined) the T/C [2] was 98 % of control, the T/C [5] was 103 % of control and the T/C [3] was 97 % of control. The T/C [7] was 104 % of control, the T/C (dose: 400.0 mg/kg/injection, schedule: Q01DX009 (ip), vehicle: saline) was 101 % of control and the T/C [8] was 93 % of control.

For `CC(=O)NC(C)(NC(C)=O)C(=O)O`, the T/C [1] was 95 % of control, the T/C (dose: 100.0 mg/kg/injection, schedule: Q01DX009 (ip), vehicle: Klucel (hydroxypropylcellulose) (HPC)) was 98 % of control and the T/C (dose: 200.0 mg/kg/injection, schedule: Q01DX009 (ip), vehicle: Klucel (hydroxypropylcellulose) (HPC)) was 95 % of control.

With `CN(C(=O)Nc1cccc([N+](=O)[O-])c1)c1ccccc1` the T/C (dose: 100.0 mg/kg/injection, schedule: Q01DX001 (ip), vehicle: saline) was 102 % of control, the T/C (dose: 200.0 mg/kg/injection, schedule: Q01DX001 (ip), vehicle: saline) was 98 % of control and the T/C (dose: 400.0 mg/kg/injection, schedule: Q01DX001 (ip), vehicle: saline) was 98 % of control.

`COc1ccc2c(c1)CCN=C2CCN1C(=O)CCC1=O` was tested, and the T/C (dose: 100.0 mg/kg/injection, schedule: Q04DX003 (ip), vehicle: saline) was 101 % of control and the T/C (dose: 200.0 mg/kg/injection, schedule: Q04DX003 (ip), vehicle: saline) was 98 % of control.
